Test results taken from US20070167488A1, “Novel therapeutic use” (Leo Pharma A/S, priority 2003, published 2007).

Legend:
[1] = test system: IL-2; test: IL-2 production by spleen cells of immunized, dosed mice after in vitro restimulation with PLP139-153; type: cell-based, mouse; conditions: for Level of antigen-specific IL-2 production of spleen cells: example 6, vs vehicle treated group
[2] = test system: EAE induced in SJL/J mice with a peptide from myelin proteolipid protein (PLP139-153); test: EAE model in SJL/J mice immunized with PLP139-153 peptide; type: in vivo, mouse; conditions: for Inhibition of EAE compared with the suspension vehicle group (in words): SJL/J mice, PLP139-153, doses as in tables 1 and 3
[3] = test system: IL-6; test: IL-6 production by spleen cells of immunized, dosed mice after in vitro restimulation with PLP139-153; type: cell-based, mouse; conditions: example 6, 50 mg/kg i.p. daily for 10 days, vs vehicle treated group
[4] = test system: IL-17; test: IL-17 production by spleen cells of immunized, dosed mice after in vitro restimulation with PLP139-153; type: cell-based, mouse; conditions: example 6, 50 mg/kg i.p. daily for 10 days, vs vehicle treated group
[5] = test system: IFN-γ; test: IFN-γ production by spleen cells of immunized, dosed mice after in vitro restimulation with PLP139-153; type: cell-based, mouse; conditions: example 6, 50 mg/kg i.p. daily for 10 days, vs vehicle treated group
[6] = test system: EAE in C57BL/6 mice immunized with a peptide from myelin oligodendrocyte glycoprotein (MOG35-55); test: Second EAE model: C57BL/6JBom mice immunized with MOG35-55 peptide; type: in vivo, mouse
[7] = test system: gene expression in inflammatory cells in the spleen; test: Oligonucleotide array of spleen cDNA from treated and control EAE mice; type: in vivo, mouse
Method: Control mice were given suspension vehicle as described in example 1. On day 7 after treatment, the mice (both treated and control) were sacrificed and their spleens were excised, submerged into the RNA storage solution RNA-later (Sigma-Aldrich, St. Louis, USA) and stored at −80° C. Total RNA was extracted from the mouse spleens using the TRIZOL extraction procedure according to the manufacturer's protocol followed by DNAse treatment (Invitrogen, Carlsbad, Calif., USA). The RNA quality was visualized by agarose gel electrophoresis. Ten μg total RNA was converted into purified ^33P-labelled cDNA probe according to the Atlas Pure Total RNA labelling protocol (BD Biosciences, Palo Alto, Calif., USA).
Labelled probes (10×10^6 CPM) were denatured at 95° C. for 2 minutes and cooled at 4° C. for 2 minutes prior to hybridization to oligonucleotide arrays comprising about 5.000 mouse genes in duplicate dots (Atlas Plastic Mouse 5K MicroArray, BD Biosciences, Palo Alto, Calif., USA). Arrays were hybridized for 16 h at 60° C. with rotation according to the manufacturer's protocol. After hybridization and appropriate washing steps, the arrays were imaged using phospho imager technology together with a STORM 860 scanner (Molecular Dynamics, Sunnyvale, Calif., USA). Subsequently, the images were analysed using the Atlas Image 2.7 software (BD Biosciences, Palo Alto, Calif., USA).

[8] = biological target: JAK-2 kinase (Mus musculus, UniProt Q62120); conditions: J. J. Bright et al., J. Immunol. 162, 1999; cited from earlier work
[9] = test system: lymphocyte adhesion to inflamed vessels; conditions: G. Constantin et al., J. Immunol. 162, 1999; cited from earlier work
[10] = Table 3, experiment with vehicle AUC 28.6, day 0-21, 50 mg/kg i.p. daily
[11] = listed as 3-(1H-indol-3-ylmethylene)-1,3-dihydro-indol-2-one
[12] = Exp. 1, terminated day 21, 50 mg/kg i.p. daily
[13] = Exp. 2, terminated day 21, 4 mg/kg i.p. daily
[14] = Exp. 2, terminated day 21, 10 mg/kg i.p. daily
[15] = Exp. 2, terminated day 21, 25 mg/kg i.p. daily
[16] = Exp. 2, terminated day 21, 50 mg/kg i.p. daily
[17] = Exp. 3, terminated day 28, 25 mg/kg i.p. daily
[18] = Exp. 3, terminated day 28, 50 mg/kg i.p. daily
[19] = Exp. 4, terminated day 35, 50 mg/kg i.p. daily
[20] = MOG35-55, day 0-21, 50 mg/kg i.p. daily
[21] = Exp. 4, terminated day 35, 200 mg/kg p.o. daily
[22] = Exp. 2, terminated day 21, 5 mg/kg i.p. daily
[23] = Exp. 1, terminated day 21, dexamethasone 0.5 mg/kg from day 0
[24] = Exp. 2, terminated day 21, dexamethasone 1 mg/kg from day 1
[25] = Exp. 3, terminated day 28, dexamethasone 1 mg/kg from day 1
[26] = Table 3, experiment with compound 57 (vehicle AUC 28.6), day 0-21, dexamethasone 1 mg/kg p.o.
[27] = Table 3, experiment with compound 110 (vehicle AUC 42.75), day 0-21, dexamethasone 1 mg/kg p.o.
[28] = MOG35-55, day 0-21, dexamethasone 1 mg/kg p.o.

JAK-2 kinase, sequence (Q62120 whole entry): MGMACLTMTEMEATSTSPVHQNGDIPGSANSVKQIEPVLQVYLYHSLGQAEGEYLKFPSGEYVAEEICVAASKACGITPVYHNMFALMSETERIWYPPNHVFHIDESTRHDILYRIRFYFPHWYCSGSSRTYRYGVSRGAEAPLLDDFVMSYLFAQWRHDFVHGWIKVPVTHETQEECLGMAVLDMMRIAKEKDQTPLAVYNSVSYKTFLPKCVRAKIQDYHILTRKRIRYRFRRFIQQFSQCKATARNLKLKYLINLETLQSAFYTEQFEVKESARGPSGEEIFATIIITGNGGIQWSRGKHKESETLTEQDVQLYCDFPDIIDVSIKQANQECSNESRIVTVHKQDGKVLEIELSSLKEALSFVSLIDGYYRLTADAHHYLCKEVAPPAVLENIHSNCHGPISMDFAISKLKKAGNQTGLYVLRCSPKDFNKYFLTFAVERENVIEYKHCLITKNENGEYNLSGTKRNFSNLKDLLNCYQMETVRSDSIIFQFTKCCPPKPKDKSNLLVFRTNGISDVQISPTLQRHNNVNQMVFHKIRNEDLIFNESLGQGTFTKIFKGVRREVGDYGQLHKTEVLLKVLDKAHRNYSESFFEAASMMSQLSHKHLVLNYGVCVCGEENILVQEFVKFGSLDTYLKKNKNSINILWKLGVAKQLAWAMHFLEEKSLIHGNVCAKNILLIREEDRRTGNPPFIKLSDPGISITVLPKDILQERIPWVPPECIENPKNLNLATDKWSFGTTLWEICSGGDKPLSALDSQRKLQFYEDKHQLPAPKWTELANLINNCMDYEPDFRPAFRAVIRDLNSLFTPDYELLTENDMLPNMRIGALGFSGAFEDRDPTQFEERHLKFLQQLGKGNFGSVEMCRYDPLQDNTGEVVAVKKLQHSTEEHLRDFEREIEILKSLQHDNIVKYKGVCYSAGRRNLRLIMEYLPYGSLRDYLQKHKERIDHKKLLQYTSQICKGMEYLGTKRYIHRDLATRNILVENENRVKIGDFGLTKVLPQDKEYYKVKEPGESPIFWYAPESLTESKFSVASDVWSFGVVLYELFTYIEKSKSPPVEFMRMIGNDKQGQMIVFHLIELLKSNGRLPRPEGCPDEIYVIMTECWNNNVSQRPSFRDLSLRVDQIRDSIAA

O=C1Nc2ccccc2C1=Cc1c[nH]c2ccccc12 (racemic) [Compound 57, 3-(1H-indol-3-ylmethylene)-1,3-dihydro-indol-2-one]
Level of antigen-specific IL-2 production of spleen cells ([1]; 50 mg/kg i.p. daily for 10 days, listed as 3-(1H-indol-3-ylmethylene)-1,3-dihydro-indol-2-one): inhibit expression | Level of antigen-specific IL-2 production of spleen cells ([1]; 50 mg/kg i.p. daily for 10 days, listed as compound 57): clearly reduced | Inhibition of EAE compared with the suspension vehicle group (in words) [2]: clear and significant inhibition | AUC (mean) of the disease score [2, 10]: 4.70 | inhibition (%) [2, 10]: 84% | Inhibition (%) of EAE (area-under-curve of the disease score) ([2]; Table 7, 50 mg/kg p.o., suspension vehicle): 32% | Level of antigen-specific IL-6 production of spleen cells [3, 11]: inhibit expression | Level of antigen-specific IL-6 production of spleen cells ([3]; listed as compound 57): clearly reduced | Level of antigen-specific IL-17 production of spleen cells [4, 11]: inhibit expression | Level of antigen-specific IL-17 production of spleen cells ([4]; listed as compound 57): clearly reduced | Level of antigen-specific IFN-γ production of spleen cells [5, 11]: inhibit expression | Level of antigen-specific IFN-γ production of spleen cells ([5]; listed as compound 57): clearly reduced

Cc1cc(C)c(C=C2C(=O)Nc3ccccc32)[nH]1 [3-(3,5-dimethyl-1H-pyrrol-2-ylmethylene)-1,3-dihydro-indol-2-one]
Level of antigen-specific IL-2 production of spleen cells ([1]; 50 mg/kg i.p. daily for 10 days): inhibit expression | Level of antigen-specific IL-6 production of spleen cells [3]: inhibit expression | Level of antigen-specific IL-17 production of spleen cells [4]: inhibit expression | Level of antigen-specific IFN-γ production of spleen cells [5]: inhibit expression

Cc1cc(C)c(C=C2C(=O)Nc3ccccc32)[nH]1 [Compound 226, 3-(3,5-dimethyl-1H-pyrrol-2-ylmethylene)-1,3-dihydro-indol-2-one]
IL-2 production of restimulated spleen cells after in vivo dosing ([1]; 50 mg/kg i.p. daily for 10 days, spleen cells day 10, PLP139-153, 3 days culture): markedly inhibited | IL-2 production of cells from suspension vehicle treated mice on in vitro incubation with compound ([1]; 10^−7 M in vitro for 3 days): did not inhibit | Level of antigen-specific IL-2 production of spleen cells ([1]; 50 mg/kg i.p. daily for 10 days, listed as compound 226): clearly reduced | AUC (mean) of the disease score [2, 12]: 1.8 | inhibition (%) [2, 12]: 90% | AUC (mean) of the disease score [2, 13]: 21.2 | inhibition (%) [2, 13]: 17% | AUC (mean) of the disease score [2, 14]: 19.6 | inhibition (%) [2, 14]: 23% | AUC (mean) of the disease score [2, 15]: 4.6 | inhibition (%) [2, 15]: 82% | AUC (mean) of the disease score [2, 16]: 0.6 | inhibition (%) [2, 16]: 98% | AUC (mean) of the disease score [2, 17]: 11.9 | inhibition (%) [2, 17]: 70% | AUC (mean) of the disease score [2, 18]: 6.6 | inhibition (%) [2, 18]: 83% | AUC (mean) of the disease score [2, 19]: 21.9 | inhibition (%) [2, 19]: 65% | Inhibition of EAE compared with the suspension vehicle group (in words) [2]: significantly inhibit | Effect on development of EAE in prolonged experiments (in words) ([2]; experiments 3 and 4, prolonged with one and two weeks): delays development of EAE rather than prevents the disease | Level of antigen-specific IL-6 production of spleen cells ([3]; listed as compound 226): clearly reduced | Level of antigen-specific IL-17 production of spleen cells ([4]; listed as compound 226): clearly reduced | Effect on disease development (in words) ([6]; MOG35-55, 50 mg/kg i.p.): significant effect on disease development | AUC (mean) of the disease score [6, 20]: 2.65 | inhibition (%) [6, 20]: 83% | Level of antigen-specific IFN-γ production of spleen cells ([5]; listed as compound 226): clearly reduced | Genes on the Atlas MicroArray differentially expressed, treated vs control mice ([7]; day 7, daily dosing from day 0): Approximately 1.5% | Expression of genes encoding adhesion molecules (lymphocyte antigens 6 locus D, 6 locus E, 84) ([7]; day 7, treated vs control mice): upregulated | Expression of genes encoding interleukin 1 receptor, interleukin 10 receptor alpha, TNF receptor and TNF receptor-associated factor 1 ([7]; day 7, treated vs control mice): downregulated

Cc1cc(C)c(/C(C(=O)O)=C2\C(=O)Nc3ccccc32)[nH]1 [Compound 229, (3,5-dimethyl-1H-pyrrol-2-yl)-(2-oxo-1,2-dihydro-indol-3-ylidene)-acetic acid]
Inhibition (%) of EAE (area-under-curve of the disease score) ([2]; Table 4, 50 mg/kg daily, treatment as in example 4): 59%

Cc1[nH]c(C=C2C(=O)Nc3ccccc32)c(C)c1CCC(=O)O [Compound A, 3-[2,4-dimethyl-5-(oxo-1,2-dihydroindol-3-ylidenemethyl)-1H-pyrrol-3-yl]-propionic acid, reference compound]
AUC (mean) of the disease score [2, 12]: 23.4 | inhibition (%) [2, 12]: −36% | AUC (mean) of the disease score [2, 21]: 55.5 | inhibition (%) [2, 21]: 11% | Inhibition of EAE compared with the suspension vehicle group (in words) [2]: no significant inhibition

CO[C@@H]1[C@H](OC(=O)NC(=O)CCl)CC[C@]2(CO2)[C@H]1[C@@]1(C)O[C@@H]1CC=C(C)C [Compound B, reference compound]
AUC (mean) of the disease score [2, 22]: 19.0 | inhibition (%) [2, 22]: 25% | AUC (mean) of the disease score [2, 14]: 19.3 | inhibition (%) [2, 14]: 24% | Inhibition of EAE compared with the suspension vehicle group (in words) [2]: no significant inhibition

C[C@@H]1C[C@H]2[C@@H]3CCC4=CC(=O)C=C[C@]4(C)[C@@]3(F)[C@@H](O)C[C@]2(C)[C@@]1(O)C(=O)CO [Dexamethasone, dexamethasone, reference compound]
AUC (mean) of the disease score [2, 23]: 4.3 | inhibition (%) [2, 23]: 75% | AUC (mean) of the disease score [2, 24]: 11.8 | inhibition (%) [2, 24]: 54% | AUC (mean) of the disease score [2, 25]: 0.8 | inhibition (%) [2, 25]: 98% | AUC (mean) of the disease score [2, 26]: 13.15 | inhibition (%) [2, 26]: 54% | AUC (mean) of the disease score [2, 27]: 8.85 | inhibition (%) [2, 27]: 79% | AUC (mean) of the disease score [6, 28]: 0.00 | inhibition (%) [6, 28]: 100%

N#C/C(=C\c1ccc(O)c(O)c1)C(=O)NCc1ccccc1 [tyrphostin B42]
Inhibition of IL-12 induced tyrosine phosphorylation and activation of JAK-2 kinase [8]: inhibit | Inhibition of lymphocyte adhesion to inflamed vessels [9]: effective inhibitor
